BigSolDB 2.1

C=C(C)[C@@H]1CC[C@]2(C(=O)O)CC[C@]3(C)[C@H](CC[C@@H]4[C@@]5(C)CC[C@H](O)C(C)(C)[C@@H]5CC[C@]43C)[C@@H]12
solubility (mole fraction)
Settings	278.2 K	288.2 K	298.2 K	308.2 K	318.2 K
in THF	0.00975	0.0136	0.0206	0.0276	0.0388
in acetone	0.000398	0.000502	0.000598	0.000829	0.00103
in ethanol	0.000651	0.000819	0.00107	0.00135	0.00171
in ethyl acetate	0.00045	0.000515	0.000733	0.000956	0.00124
in ethyl formate	0.0002	0.000272	0.000428	0.000548	0.000786
in isopropanol	0.000765	0.00092	0.0012	0.00149	0.00196
in methanol	0.00019	0.000248	0.000339	0.000461	0.000734
in n-butanol	0.00118	0.00149	0.00192	0.00234	0.003
in n-butyl acetate	0.000824	0.001	0.0012	0.00159	0.00193
in n-hexanol	0.00226	0.00283	0.00324	0.00378	0.00454
in n-pentanol	0.00199	0.00228	0.00266	0.00309	0.00363
in n-propanol	0.00103	0.00137	0.00178	0.00221	0.0028
in sec-butanol	0.000821	0.00113	0.00149	0.00189	0.00245
